Test results from US12691107B2, “Methods for the treatment and prevention of lung infections caused by gram-positive bacteria, fungus, or virus by administration of tafenoquine” (priority 2020, dated 2026).
Converted amounts (≈) assume the structure as drawn. Like-named read-outs stand apart in the source and are kept apart here.

Legend:
Candida parapsilosis = assay: Antifungal MIC (RPMI-1640 microdilution); type: cell-based; conditions: for MIC50 / MIC: Lodderomyces parapsilosis
C. krusei = assay: Antifungal MIC (RPMI-1640 microdilution); type: cell-based; conditions: Pichia kudriavzevii, isolate ATCC 6258
Candida guilliermondii = assay: Antifungal MIC (RPMI-1640 microdilution); type: cell-based; conditions: Meyerozyma guilliermondii
Cryptococcus neoformans = assay: Antifungal MIC (RPMI-1640 microdilution); type: cell-based
Rhizopus arrhizus = assay: Antifungal MIC (RPMI-1640 microdilution); type: cell-based
Streptococcus pneumoniae = assay: Antibacterial MIC (broth microdilution); type: cell-based; conditions: CA-MHB with 3% LHB
A. baumannii = assay: Antibacterial MIC (broth microdilution); type: cell-based; conditions: Acinetobacter baumannii
[1] = tested on: M. tuberculosis [ATCC #27294]; assay: MIC against M. tuberculosis in 7H9 media; type: cell-based; conditions: Mycobacterium tuberculosis
[2] = Blood cell:plasma partitioning experiments; type: in vitro ADME, human; conditions: humans
Pneumocystis = Pneumocystis in vitro (Bartlett et al., 1991); type: cell-based; conditions: read-out: equivalent MIC in the absence of protein
Excerpt: Therefore, the minimum inhibitory concentration in vitro is approximately 10 microgram/ml.

[3] = Maximum tolerated dose in uninfected immunosuppressed mice; type: in vivo, ICR mice
Description: Tafenoquine succinate powder was supplied in the form of the commercial API used to make 100 mg ARAKODA tablets [therefore it was >99.8% pure and contain no excipients]. Four dosing solutions were prepared, and the concentrations of tafenoquine succinate were adjusted based on the mean mouse weight at the start of the study in order to achieve dosing groups of 2.5, 5, 10 and 20 mg/kg tafenoquine base respectively [note that tafenoquine succinate contains 79.6% tafenoquine base].
The dosing solutions was in the form of a tafenoquine succinate suspension in the drug vehicle. A large batch [>1 liter] of the drug vehicle [0.2% v/v Tween 80 in 1% v/v methyl cellulose in sterile water] was prepared at least 96 h before the first dose was administered and kept refrigerated [4° C.]. During preparation, the batch of drug vehicle was stirred for sufficiently long to ensure a uniform composition [4 to 24 h of stirring with a magnetic stir bar may be required].
Dosing solutions were prepared no more than 72 h prior to the first dose. Tafenoquine powder was weighed out separately for each dosing solution. After weighing, tafenoquine was transferred into an appropriately sized, transparent tube [or equivalent] containing the desired volume of drug vehicle, and gently shaken to allow development of a uniform suspension without bubble formation. The tubes containing dosing solutions were stored at [4° C.] wrapped in aluminum foil until use. Prior to use, the dosing solutions were inverted gently as required to resuspend the tafenoquine and allowed to warm temperature. Use of transparent tubes allowed for visual confirmation that an even resuspension of the drug has had been achieved prior to dosing. The above resuspension procedure was conducted the first time 48 h prior to the first day of dosing to confirm there have been no preparation issues.
Mouse Strain—Outbred male ICR mice weighing ~28 grams were used. Mice were housed 5 per cage and had access to food and water ad libitum.
Immune Status—Standard neutropenic immunosuppression regimen in the PK/dose tolerability study was used, which was also used in the in vivo efficacy model. This regimen utilizes cyclophosphamide and cortisone acetate to render animals immunosuppressed prior to aerosolized inoculation. • Cyclophosphamide (25 mg/mL) was dissolved by the addition of sterile water to the vial. This was administered as a dose of 250 mg/kg two days prior to inoculation. […]
Mouse Assessment—Throughout the studies, mice were observed multiple times per day and their overall health determined. […]

[4] = tested on: Aspergillus fumigatus clinical isolate 293 (Af293); assay: Prophylactic efficacy in Aspergillus-infected immunosuppressed mice; type: in vivo, ICR mice; conditions: 2.5 or 5.0 mg/kg/day oral from day -2 through day +7
Plasmodium cynomolgi = conditions: for three days; cited from earlier work

Compound `COc1cc(C)c2c(Oc3cccc(C(F)(F)F)c3)c(OC)cc(NC(C)CCCN)c2n1.O=C(O)CCC(=O)O` (centres unmarked) [Tafenoquine Succinate] has an MIC50 (Candida parapsilosis; ATCC22019, read-out: MIC 50% inhibition, isolate ATCC 22019) of 4 µg/mL, an MIC (Candida parapsilosis; ATCC22019, read-out: MIC 100% inhibition, isolate ATCC 22019) of 4 µg/mL and an MIC50 (Candida parapsilosis; read-out: MIC 50% inhibition, isolate CP1) of 4 µg/mL. For the same compound, the MIC (Candida parapsilosis; read-out: MIC 100% inhibition, isolate CP1) was 4 µg/mL, the MIC (Candida parapsilosis; read-out: MIC 100% inhibition, isolate CP2) was 4 µg/mL and the MIC (Candida parapsilosis; read-out: MIC 100% inhibition, isolate CP3) was 8 µg/mL. For the same compound, the “MIC 50% inhibition” value (Candida parapsilosis; isolate CP2) was 4 µg/mL, the “MIC 50% inhibition” value (Candida parapsilosis; isolate CP3) was 4 µg/mL and the MIC50 (C. krusei; ATCC6258, read-out: MIC 50% inhibition) was 4 µg/mL. It also gave an MIC (C. krusei; ATCC6258, read-out: MIC 100% inhibition) of 4 µg/mL, an MIC50 (Candida guilliermondii; read-out: MIC 50% inhibition, isolate Cgui1) of 2 µg/mL and an MIC50 (Candida guilliermondii; read-out: MIC 50% inhibition, isolate Cgui2) of 2 µg/mL. It also gave an MIC50 (Candida guilliermondii; read-out: MIC 50% inhibition, isolate Cgui3) of 4 µg/mL, an MIC (Candida guilliermondii; read-out: MIC 100% inhibition, isolate Cgui1) of 4 µg/mL and an MIC (Candida guilliermondii; read-out: MIC 100% inhibition, isolate Cgui2) of 2 µg/mL. The MIC (Candida guilliermondii; read-out: MIC 100% inhibition, isolate Cgui3) was 4 µg/mL, the MIC50 (Cryptococcus neoformans; Cryptococcus neoformans, read-out: MIC 50% inhibition, isolate CN3) was 4 µg/mL and the MIC50 (Cryptococcus neoformans; Cryptococcus neoformans, read-out: MIC 50% inhibition, isolate H99) was 4 µg/mL. The MIC50 (Cryptococcus neoformans; Cryptococcus neoformans, read-out: MIC 50% inhibition, isolate USC1597) was 4 µg/mL, the MIC (Cryptococcus neoformans; Cryptococcus neoformans, read-out: MIC 100% inhibition, isolate USC1597) was 4 µg/mL and the “MIC 100% inhibition” value (Cryptococcus neoformans; isolate CN3) was 4 µg/mL. The “MIC 100% inhibition” value (Cryptococcus neoformans; isolate H99) was 4 µg/mL, the MIC50 (Rhizopus arrhizus; read-out: MIC 50% inhibition, isolate 99-880) was 4 µg/mL and the MIC50 (Rhizopus arrhizus; read-out: MIC 50% inhibition, isolate 99-892) was 4 µg/mL. For the same compound, the MIC50 (Rhizopus arrhizus; read-out: MIC 50% inhibition, isolate RAI) was 8 µg/mL, the MIC (Rhizopus arrhizus; read-out: MIC 100% inhibition, isolate 99-880) was 4 µg/mL and the MIC (Rhizopus arrhizus; read-out: MIC 100% inhibition, isolate 99-892) was 4 µg/mL. It also gave an MIC (Rhizopus arrhizus; read-out: MIC 100% inhibition, isolate RAI) of 16 µg/mL, an MIC (Streptococcus pneumoniae; Streptococcus pneumoniae, ATCC49619, isolate ATCC 49619, read-out: MIC) of 16 µg/mL and an MIC (Streptococcus pneumoniae; Streptococcus pneumoniae, isolate MD77773, read-out: MIC) of 16 µg/mL. For the same compound, the MIC (Streptococcus pneumoniae; isolate CO314937) was 16 µg/mL, the MIC (A. baumannii; ATCC17978, isolate ATCC 17978) was 64 µg/mL and the MIC (A. baumannii; isolate AR-88) was 64 µg/mL. The MIC (A. baumannii; isolate AR-273) was > 64 µg/mL.

`COc1cc(C)c2c(Oc3cccc(C(F)(F)F)c3)c(OC)cc(NC(C)CCCN)c2n1` (centres unmarked) [Tafenoquine, N(4)-[2,6-Dimethoxy-4-methyl-5-[3-(trifluoromethyl)phenoxy]quinolin-8-yl]pentane-1,4-diamine] gave an MIC ([1]; ATCC27294, 168 h, 7H9 with BSA, DPPC and cholesterol, 1 week, read-out: MIC) of 9.4 µg/mL (≈ 20.3 µM), an MIC ([1]; ATCC27294, 168 h, 7H9 with casitone and DPPC, 1 week, read-out: MIC) of 4.7 µg/mL (≈ 10.1 µM) and an MIC ([1]; ATCC27294, 168 h, 7H9 with glucose and BSA, 1 week, read-out: MIC) of 12.5 µg/mL (≈ 27 µM). It also gave an MIC ([1]; ATCC27294, 168 h, 7H9 with glucose and casitone, 1 week, read-out: MIC) of 4.7 µg/mL (≈ 10.1 µM), an MIC ([1]; ATCC27294, 336 h, 7H9 with BSA, DPPC and cholesterol, 2 weeks, read-out: MIC) of 12.5 µg/mL (≈ 27 µM) and an MIC ([1]; ATCC27294, 336 h, 7H9 with casitone and DPPC, 2 weeks, read-out: MIC) of 6.25 µg/mL (≈ 13.5 µM). The MIC ([1]; ATCC27294, 336 h, 7H9 with glucose and BSA, 2 weeks, read-out: MIC) was 19 µg/mL (≈ 41 µM), the MIC ([1]; ATCC27294, 336 h, 7H9 with glucose and casitone, 2 weeks, read-out: MIC) was 6.25 µg/mL (≈ 13.5 µM) and the MIC ([1]; ATCC27294, range over Examples 19-22, read-out: MIC against replicating forms of tuberculosis in vitro) was 4.7 to 18 µg/mL (≈ 10.1 to 38.8 µM). For the same compound, the “ratio of the blood cell:plasma concentration” value [2] was 1.4, the MIC (Pneumocystis) was 5 µg/mL and the “mice moribund prior to the study endpoint” value ([3]; 10 mg/kg group) was 2 of 21. For the same compound, the “mice moribund prior to the study endpoint” value ([3]; 20 mg/kg group) was 4 of 21, the tolerability ([3]; 2.5 and 5.0 mg/kg oral, daily) was “well-tolerated” and the “mouse weights on days 7/8 versus vehicle control” value ([3]; higher dose groups (10 and 20 mg/kg)) was “these differences were not significant”. The pulmonary fungal burden [4] was “dose-related, albeit non-statistically significant trend towards reduced fungal burden”, the “survival versus vehicle control” value ([4]; followed until day 12) was “no statistical differences in survival” and the “dose required to eliminate the replicating blood stage forms” value (Plasmodium cynomolgi) was 6 mg/kg/day. The “dose required to kill the quiescent hypnozoites” value (Plasmodium cynomolgi) was 0.6 mg/kg/day.
